Values joined by “and” are separate entries in the source; they are usually repeats but may differ in a detail not shown here. Equal values may be shown once.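 These data come from cells grown in 96-well plates and exposed to compound for 48 hours at five concentrations. GI50 marks 50% less growth. TGI is the concentration that stops growth completely.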
Key:
Test in all cases: DTP human tumour cell line panel, 48 h
NCI/ADR-RES ovarian = tested on: NCI/ADR-RES ovarian
HCC-2998 colon = tested on: HCC-2998 colon
NCI-H522 lung = tested on: NCI-H522 lung
HL-60(TB) leukemia = tested on: HL-60(TB) leukemia
MDA-MB-231 breast = tested on: MDA-MB-231 breast
CAKI-1 renal = tested on: CAKI-1 renal
MCF7 breast = tested on: MCF7 breast
SF-539 CNS = tested on: SF-539 CNS
OVCAR-8 ovarian = tested on: OVCAR-8 ovarian
UACC-62 melanoma = tested on: UACC-62 melanoma

| SMILES | GI50 (NCI/ADR-RES ovarian) | TGI (NCI/ADR-RES ovarian) | GI50 (HCC-2998 colon) | TGI (HCC-2998 colon) | GI50 (NCI-H522 lung) | TGI (NCI-H522 lung) | GI50 (HL-60(TB) leukemia) | TGI (HL-60(TB) leukemia) | GI50 (MDA-MB-231 breast) | TGI (MDA-MB-231 breast) | GI50 (CAKI-1 renal) | TGI (CAKI-1 renal) | GI50 (MCF7 breast) | TGI (MCF7 breast) | GI50 (SF-539 CNS) | TGI (SF-539 CNS) | GI50 (OVCAR-8 ovarian) | TGI (OVCAR-8 ovarian) | GI50 (UACC-62 melanoma) | TGI (UACC-62 melanoma) |
| --- | --- | --- | --- | --- | --- | --- | --- | --- | --- | --- | --- | --- | --- | --- | --- | --- | --- | --- | --- | --- |
| C#CCOc1cccc(Nc2ncnc3cc(NC(=O)C=C)ccc23)c1 | 9.66 µM | > 100 µM | 11.6 µM | 60.4 µM | 2.8 µM | 34.2 µM | 3.84 µM | 45.7 µM | 6.47 µM | > 100 µM | 6.08 µM | > 100 µM | 3.65 µM | > 100 µM | 2.89 µM | 14 µM | 7.72 µM | 57.8 µM | 9.82 µM | > 100 µM |
| C[C@@]1(C(=O)O)CCC[C@]2(C)C1CC[C@]13C[C@@](O)(CO)[C@](O)(CC[C@]12O)C3 (stereo not given in full) | > 100 µM | > 100 µM | > 100 µM | > 100 µM | > 100 µM | > 100 µM | > 100 µM | > 100 µM | > 100 µM | > 100 µM | > 100 µM | > 100 µM | > 100 µM | > 100 µM | > 100 µM | > 100 µM | > 100 µM | > 100 µM | > 100 µM | > 100 µM |
| COc1cc2c(NC3CCN(C(C)C)CC3)nc(C3CCCCC3)nc2cc1OCCCN1CCCC1 | 24.9 µM | > 78.8 µM | 9.03 µM | 27.4 µM | 2.95 µM | 8.53 µM | 3.03 µM | 10.9 µM | 2.61 µM | 9.44 µM | 5.01 µM | 11.2 µM | 2.64 µM | 14.4 µM | 1.79 µM | 3.48 µM | 3.97 µM | 15.6 µM | 5.47 µM | 16.8 µM |
| NC(Cc1cccnn1)C(=O)O (stereo not given) |  | > 100 µM |  | > 100 µM |  | > 100 µM |  | > 100 µM |  | > 100 µM |  | > 100 µM |  | > 100 µM |  | > 100 µM |  | > 100 µM |  | > 100 µM |
| CN(C)c1cc2c(Nc3ccc4c(cnn4Cc4ccccc4)c3)ncnc2cn1 | 5.85 µM | > 25 µM | 10.8 µM | > 25 µM | 1.82 µM | > 25 µM | 8.93 µM | 23.8 µM | 6.1 µM | > 25 µM | 0.299 µM | > 21.5 µM | 16.5 µM | > 25 µM | 10.1 µM | > 25 µM | 9.13 µM | > 25 µM | 6.96 µM | 19.9 µM |
| CC(=O)O[C@@H]1C2=C(C)C3(CC3)[C@@](C)(O)C(=O)C2=C[C@@]1(C)CO | 0.416 µM | 4.11 µM | 0.496 µM | 1.89 µM | 0.496 µM | 4.44 µM | 0.414 µM | > 22.5 µM | 1.8 µM | 8.92 µM | 1.5 µM | 13.3 µM | 0.371 µM | 3.28 µM | 1.02 µM | 3.38 µM | 0.427 µM | > 100 µM | 1.71 µM | 3.59 µM |
| CC(C)c1[nH]nc2c(NCc3ccc(-c4ccccn4)cc3)nc(SCCN)nc12 | 4.87 µM and 3.56 µM | 21.3 µM | 0.025 µM | 1.08 µM | 0.00326 µM | 0.147 µM | 0.00469 µM | 0.0443 µM | 0.00492 µM | 0.205 µM and 0.212 µM | 2.47 µM and 2.84 µM | 14.8 µM | 0.00401 µM | 2.28 µM and 10.2 µM | 0.0314 µM and 0.0272 µM | 0.0979 µM and 0.0811 µM | 0.0387 µM and 0.0243 µM | 12.9 µM | 0.0191 µM | 0.0486 µM |
| C=C1C(=O)O[C@@H]2CC(CO)=C([C@@H](C)CCCO)[C@@H](OC(=O)/C(C)=C\C)[C@H]12 |  | 75.4 µM |  | 29.6 µM |  | 15.3 µM |  | 4.86 µM |  | 57.2 µM |  | 63.4 µM |  | 23.4 µM |  | > 71.3 µM |  | > 76.8 µM |  | 47.8 µM |
| CCCCSc1nc(N)c2cn[nH]c2n1 | 16.3 µM | 37.4 µM | 0.22 µM | 2.26 µM | 20.7 µM | 49.6 µM | 23.6 µM | > 100 µM | 15.5 µM | 35.2 µM | 18.2 µM | 44.4 µM | 23.4 µM | > 62.5 µM | 18.3 µM | 39.1 µM | 23.2 µM | > 60.4 µM | 16.8 µM | 40.8 µM |
| CC(C)(C)C(=O)c1c(C(F)(F)F)n([O-])c2cc(Cl)c(Cl)cc2[n+]1=O | 0.567 µM | 1.37 µM | 0.172 µM | 0.465 µM | 0.538 µM | 1 µM | 0.188 µM | 0.446 µM | 1.44 µM | 2.9 µM | 0.248 µM | 0.639 µM | 0.168 µM | 0.566 µM | 0.563 µM | 1.04 µM | 0.502 µM | 1.51 µM | 1.46 µM | 2.77 µM |
| OC(CN1CCCC2CCCCC21)c1cc2ccccc2c2ccccc12 (stereo not given) | 2.07 µM | 5.19 µM | 1.78 µM | 3.9 µM | 1.45 µM | 3.06 µM | 2.02 µM | 3.76 µM | 1.69 µM | 4.06 µM | 2.36 µM | 8.15 µM | 1.84 µM | 3.51 µM | 1.99 µM | 4.74 µM | 3.2 µM | 15.3 µM | 2.32 µM | 6.58 µM |
| Cc1ccnc2c(NC(C)CCCN)cc(O)c(O)c12 (stereo not given) | 16.3 µM | > 100 µM | 7.83 µM | 32 µM | 2.14 µM | 9.44 µM | 2.12 µM | 5.33 µM | 16 µM | 74 µM | 38.7 µM | > 100 µM | 1.97 µM | 5.9 µM | 18.5 µM | 41.9 µM | 6.62 µM | 82.6 µM | 32.3 µM | > 100 µM |
| CC(C)c1[nH]nc2c(NCc3ccc(-c4ccccn4)cc3)nc(SCCN(C)C)nc12 | 0.13 µM | 11.4 µM | < 0.0185 µM | 0.844 µM | < 0.015 µM | < 0.0232 µM | < 0.0156 µM | 0.0313 µM | 0.0257 µM | 8.3 µM | 0.37 µM | 19.4 µM | < 0.0218 µM | 10.5 µM | 0.0745 µM | 0.242 µM | 0.0416 µM | 15.5 µM | 0.0427 µM | 0.4 µM |
| O=C(NCc1ccco1)C1CCN(S(=O)(=O)c2ccc(Cl)cc2)CC1 | > 100 µM | > 100 µM | > 100 µM | > 100 µM | 90.5 µM | > 100 µM | > 100 µM | > 100 µM | > 100 µM | > 100 µM | > 100 µM | > 100 µM | 37.8 µM | > 100 µM | > 100 µM | > 100 µM | > 100 µM | > 100 µM | 80.5 µM | > 100 µM |
| CNCC(=O)NC(CO)C(=O)NC(CO)C(=O)NC1C(C(N)=O)OC(n2ccc(N)nc2=O)C(O)C1O (stereo not given) | 5.79 µg/mL | 28 µg/mL | 20.6 µg/mL | > 50 µg/mL | 1.85 µg/mL | 8.98 µg/mL | > 50 µg/mL | > 50 µg/mL | > 50 µg/mL | > 50 µg/mL | 15.7 µg/mL | > 50 µg/mL | > 50 µg/mL | > 50 µg/mL | 5.01 µg/mL | 28.7 µg/mL | 12.4 µg/mL | > 50 µg/mL | 2.88 µg/mL | 16.8 µg/mL |
| CSc1ccc(NC(=O)Nc2cc(C)ccn2)cc1 |  | > 100 µM |  | > 100 µM |  | > 100 µM |  | > 100 µM |  | > 100 µM |  | > 100 µM |  | > 100 µM |  | > 100 µM |  | > 100 µM |  | > 100 µM |
| O=C(N=Nc1c(Cl)c(O)c2ccccc2c1O)C(=O)Nc1cccc(C(F)(F)F)c1 | 3.52 µM | 17.7 µM | 10.4 µM | 22.9 µM | 2.82 µM | 10.9 µM | 3.35 µM | 10.2 µM | 1.6 µM | 12.9 µM | 8.66 µM | 23.7 µM | 1.84 µM | 4.31 µM | 3.51 µM | 14.4 µM | 3.39 µM | 13.6 µM | 3.33 µM | 16.2 µM |
| CC1=NN(c2cccc(Cl)c2)C(=O)/C1=C\C=C\c1ccccc1 | 3.4 µM | > 100 µM | 1.91 µM | 3.45 µM | 2.63 µM | 6.84 µM | 3.14 µM | > 100 µM | 2.27 µM | 7.47 µM | 1.89 µM | 4.49 µM | 1.12 µM | 18.8 µM | 2.5 µM | 6.12 µM | 2.63 µM | 9.44 µM | 1.76 µM | 3.87 µM |
